The text below walks through data of patent US12653801B2, “Digestive lipase activity inhibitor, blood triglyceride concentration increase inhibitor, and fat absorption inhibitor” (Pharma Foods International Co., Ltd., priority 2020, dated 2026).

For experiment [1], the system named is digestive lipase solution (mixture of pancreatic lipase, intestinal lipase, and the like) from rat intestinal acetone powder. Description: Test 2: digestive lipase activity inhibition test with mixture of linoleic acid and oleic acid. It is filed as biochemical. The settings on record: 0.009 mg/mL linoleic acid aqueous solution, final concentration.
Method: A control was prepared in a new 1.5 mL capacity tube for the purpose of measuring the absorbance of the above samples and reagents themselves. […] After that, 700 μL of reaction stop solution and 25 μL of substrate solution were added, and the absorbance at 412 nm was measured. […] Absorbance at 412 nm was also measured for blank a and blank b.
First, the digestive lipase activity inhibition rate of each sample was calculated according to the equation shown below.
Experiment [2] shares this test system. As to the kind of experiment: Test 1: digestive lipase activity inhibition test with linoleic acid and oleic acid (Lipase Kit S, absorbance 412 nm). It is filed as biochemical. The settings on record: DMSO solution. The method, then: 30 mL of 0.1 M citrate buffer solution (pH 6.0) was added to 30 mg of rat intestinal acetone powder (manufactured by SIGMA Corporation), shaken in ice for 1 hour, and centrifuged at 4° C. and 10,000 rpm for 45 minutes, to obtain a digestive lipase solution. The digestive lipase solution is a mixture of pancreatic lipase, intestinal lipase, and the like. […] After that, 25 μL of the substrate solution was added, and the reaction was carried out at 30° C. for 30 minutes in the dark. After that, 700 μL of a reaction stop solution was added, and the absorbance at 412 nm was measured for this solution. As the coloring solution, the substrate solution, the esterase inhibitor, and the reaction stop solution, those attached to Lipase Kit S (manufactured by SB Bioscience Co., Ltd.) were used. A control was prepared in a new 1.5 mL capacity tube for the purpose of measuring the absorbance of the above samples and reagents themselves. […] After that, 700 μL of reaction stop solution and 25 μL of substrate solution were added, and the absorbance at 412 nm was measured. In addition, blank a was prepared in the same manner as in the activity evaluation except that only DMSO was added instead of the DMSO solution of each sample, and blank b was prepared in the same manner as the control by adding only DMSO (control blank). Absorbance at 412 nm was also measured for blank a and blank b. Digestive lipase activity when each sample was added was calculated by the following equation. Digestive lipase activity (%)=100×(absorbance of each sample−absorbance of control)/(absorbance of blank a−absorbance of blank b) (Results)

As for `CCCCC/C=C\C/C=C\CCCCCCCC(=O)O` [linoleic acid], the “Digestive lipase activity inhibition rate” value in experiment [1] came to 9.6%. For the same compound, the Digestive lipase activity in experiment [2] (0.19 mg/mL final concentration, 30° C. 30 minutes) was determined as 8.9%.

As for `CCCCCCCC/C=C\CCCCCCCC(=O)O` [oleic acid], the Digestive lipase activity in experiment [2] (0.16 mg/mL final concentration, 30° C. 30 minutes) is 7.1%.

Regarding `c1cc2c(cc1[C@H]1OC[C@H]3[C@@H]1CO[C@@H]3c1ccc3c(c1)OCO3)OCO2` [sesamin, reference compound], in experiment [2] (0.044 mg/mL final concentration, for comparison), the Digestive lipase activity is listed as 110.9%.
